This experiment has as its target T1, Δ^5 -lipoxygenase from rat basophilic leukemia (RBL-1) cells (Rattus norvegicus, UniProt P12527).
T1 construct: endogenous in cells; host or cells: RBL-1 rat basophilic leukemia cells (ATCC CRL 1378); 113,000×g supernatant (cytosolic fraction)
T1 sequence (P12527 1-673): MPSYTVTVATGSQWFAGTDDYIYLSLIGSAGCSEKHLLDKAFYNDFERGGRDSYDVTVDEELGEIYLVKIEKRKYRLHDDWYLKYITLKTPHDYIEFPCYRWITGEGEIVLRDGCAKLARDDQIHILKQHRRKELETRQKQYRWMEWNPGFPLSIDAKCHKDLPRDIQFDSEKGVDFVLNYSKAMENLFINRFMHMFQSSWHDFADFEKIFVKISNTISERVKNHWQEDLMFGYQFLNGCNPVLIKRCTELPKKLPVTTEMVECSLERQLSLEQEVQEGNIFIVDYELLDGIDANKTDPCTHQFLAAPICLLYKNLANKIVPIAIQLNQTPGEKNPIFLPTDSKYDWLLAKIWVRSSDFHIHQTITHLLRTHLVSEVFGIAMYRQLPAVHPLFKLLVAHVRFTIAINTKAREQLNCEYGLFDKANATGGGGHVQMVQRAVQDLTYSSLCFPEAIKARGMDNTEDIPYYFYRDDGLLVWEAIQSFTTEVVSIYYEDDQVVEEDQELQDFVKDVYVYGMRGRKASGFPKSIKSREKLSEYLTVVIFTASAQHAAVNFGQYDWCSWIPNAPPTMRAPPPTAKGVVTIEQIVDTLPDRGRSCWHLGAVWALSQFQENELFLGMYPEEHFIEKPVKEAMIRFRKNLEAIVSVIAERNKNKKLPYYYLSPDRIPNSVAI
Kind of experiment: In vitro test for Δ^5 -lipoxygenase inhibitors (5-LO), RBL-1 cell enzyme, 5-HETE radioimmunoassay. It counts as biochemical. The note with it: RBL-1 5-LO; 10 min preincubation; 8.25 μM arachidonic acid, 10 min at 37° C.; 5-HETE formation; read-out: 5-LO IC-50. In short, it runs like this:
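Cytosolic (113,000×g supernatant) 5-LO from RBL-1 cells was preincubated with compound 10 min at 30° C, then reacted 10 min at 37° C with 8.25 μM arachidonic acid in Tris-HCl pH 7.2 with glutathione, indomethacin, CaCl2 and ATP. The reaction was stopped with citric acid (pH 3.5), and 5-HETE formed was quantified by radioimmunoassay.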
Regarding `Cc1c(C)c2c(c(C)c1O)CCC(C)(C#Cc1ccc(OCc3ccccc3)c(O)c1)O2` (racemic) [Example 43, rac-3,4-Dihydro-2-{[3-hydroxy-4-(phenylmethoxY)phenyl]-ethynyl}-2,5,7,8-tetramethyl-2H-1-benzopyran-6-ol], the IC50 turned out to be 24 nM. The same measure for `Cc1c(C)c2c(c(C)c1O)CCC(C)(C#Cc1ccccc1O)O2` (racemic) [Example 50 (2-HO-phenyl), rac-3,4-Dihydro-2-[(2-hydroxyphenyl)ethynyl]-2,5,7,8-tetramethyl-2H-1-benzopyran-6-ol]: 6 nM; for `Cc1c(C)c2c(c(C)c1O)CCC(C)(c1cc3ccccc3o1)O2` (racemic) [Example 50 (CH; H, H, H), rac-2-(2-Benzofuranyl)-3,4-dihydro-2,5,7,8-tetramethyl-2H-1-benzopyran-6-ol]: 12 nM; for `Cc1ccc2oc(C3(C)CCc4c(C)c(O)c(C)c(C)c4O3)cc2n1` (racemic) [Example 51, rac-3,4-Dihydro-2-(5-methylfuro[3,2[b]pyridin-2-yl)-2,5,7,8-tetramethyl-2H-1-benzopyran-6ol]: 3 nM. On to `Cc1c(C)c2c(c(C)c1O)CCC(C)(c1cc3ncccc3o1)O2` (racemic) [Example 52, rac-3,4-Dihydro-2-(furo[3,2-b]pyridine-2-yl)-2,5,7,8-tetramethyl-2H-1-benzopyran-6-ol], for which the IC50 was 18 nM.

With `CCCc1c(O)c(C(C)=O)cc2cc(C3(C)CCc4c(C)c(O)c(C)c(C)c4O3)oc12` (racemic) [Example 53, rac-1-2-(3,4-Dihydro-6-hydroxy-2,5,7,8-tetramethyl-2H-1-benzopyran-2-yl)-6-hydroxy-7-propylbenzofuran-5-yl]ethanone], the IC50 amounted to 17 nM. In the case of `COc1cc(CO)cc2cc(C3(C)CCc4c(C)c(O)c(C)c(C)c4O3)oc12` (racemic) [Example 55, rac-2-(3,4-Dihydro-6-hydroxy-2,5,7,8-tetramethyl-2H-1-benzopyran-2-yl)-7-methoxybenzofuran-5-methanol], the IC50 is 3 nM. Consider `Cc1c(C)c2c(c(C)c1O)CCC(C)(CCc1cccs1)O2` (racemic) [Example 57, rac-3,4-Dihydro-2,5,7,8-tetramethyl-2-[2-(2-thienyl)ethyl]-2H-1-benzo-pyran-6-ol], for which the IC50 was 50 nM. In the case of `Cc1c(C)c2c(c(C)c1O)CCC(C)(CCc1ccccn1)O2` (racemic) [Example 58, rac-3,4-Dihydro-2,5,7,8-tetramethyl-2-[2-(2-pyridinyl)ethyl]-2H-1-benzopyran-6-ol], the IC50 is 60 nM. The same measure for `Cc1c(C)c2c(c(C)c1O)CCC(C)(CCc1cccnc1)O2` (racemic) [Example 59, rac-3,4-Dihydro-2,5,7,8-tetramethyl-2-[2-(3-pyridinyl)ethyl]-2H-1-benzopyran-6-ol]: 30 nM; for `COc1ccc(CCC2(C)CCc3c(C)c(O)c(C)c(C)c3O2)cc1OC(C)=O` (racemic) [Example 60, rac-2-{2-[3-(Acetyloxy)-4-methoxyphenyl]ethyl}-3,4-dihydro-2,5,7,8-tetramethyl-2H-1-benzopyran-6ol]: 56 nM.

Take `Cc1c(C)c2c(c(C)c1O)CCC(C)(CCc1ccc(O)c(O)c1)O2` (racemic) [Example 61, rac-4-[2-(3,4-Dihydro-6-hydroxy-2,5,7,8-tetramethyl-2H-1-benzopyran-2-yl)ethyl]-1,2-benzenediol]: the IC50 is 15 nM. For the molecule `COc1cccc(CCC2(C)CCc3c(C)c(O)c(C)c(C)c3O2)c1` (racemic) [Example 62, rac-3,4-Dihydro-2-[2-(3-methoxyphenyl)ethyl]-2,5,7,8-tetramethyl-2H-1-benzopyran-6-ol], the IC50 came out at 120 nM.

Consider `COC(=O)c1cc(CCC2(C)CCc3c(C)c(O)c(C)c(C)c3O2)ccc1O` (racemic) [Example 63, rac-5-[2-(3,4-Dihydro-6-hydroxy-2,5,7,8-tetramethyl-2H-1-benzopyran-2-yl)ethyl]-2-hydroxybenzoic acid methyl ester], for which the IC50 amounted to 80 nM. The same measure for `Cc1c(C)c2c(c(C)c1O)CCC(C)(CCc1ccc(-c3cccnc3)cc1)O2` (racemic) [Example 64, rac-3,4-Dihydro-2,5,7,8-tetramethyl-2-{2-[4-(3-pyridinyl)-phenyl]ethyl}-2H-1-benzopyran-6-ol]: 46 nM; for `Cc1c(C)c2c(c(C)c1O)CCC(C)(CCc1ccc(-c3ccccn3)s1)O2` (racemic) [Example 65, rac-3,4-Dihydro-2,5,7,8-tetramethyl-2-{2-[5-(2-pyridinyl)-2-thienyl]ethyl}-2H-1-benzopyran-6ol]: 170 nM; for `CCCCc1ccc(CCC2(C)CCc3c(C)c(O)c(C)c(C)c3O2)s1` (racemic) [Example 66, rac-2-[2-(5-Butyl-2-thienyl)ethyl]-3,4-dihydro-2,5,7,8-tetramethyl-2H-1-benzopyran-6-ol]: 140 nM.

With `Cc1c(C)c2c(c(C)c1O)CC[C@](C)(C#Cc1cccs1)O2` [Example 5, (R)-3,4-Dihydro-2,5,7,8-tetramethyl-2-[(2-thienyl)ethynyl]-2H-1-benzopvran-6-ol], the IC50 turned out to be 15 nM. For `Cc1c(C)c2c(c(C)c1O)CC[C@@](C)(C#Cc1cccs1)O2` [Example 13, (S)-3,4-Dihydro-2,5,7,8-tetramethyl-2-[(2-thienyl)ethynyl]-2H-1-benzopyran-6-ol] the value was 17 nM. For `Cc1c(C)c2c(c(C)c1O)CCC(C)(C#Cc1ccc3c(c1)N(C)C(=O)CO3)O2` (centres unmarked) [Example 48] the value was 32 nM.

Values taken from US5015661A, “Chromanes and their pharmaceutical compositions and methods” (Hoffmann-La Roche Inc., priority 1989, dated 1991).
